{"source": "patent US11622984B2", "about": "“Composition comprising aster sphathulifolius maxim extract for preventing, improving, or treating muscular diseases or for improving muscular functions” (NEWTREE CO., LTD., priority 2018, dated 2023)", "type_in_all_cases": "in vivo, C57BL/6 mice", "key": {"[1]": {"system": "muscle atrophy mouse model", "experiment": "Muscle tissue weight in leg-immobilization muscle atrophy mouse model", "protocol": "(§1) An animal experiment was conducted to confirm whether an Aster spathulifolius extract improved muscle atrophy in a muscle atrophy mouse model. Five-week-old male C57BL/6 mice were adapted to an animal laboratory environment for one week, and then divided into five groups according to an experimental condition, and immobilization of the legs to induce muscle atrophy and oral administration of samples were performed for two weeks. Specifically, experimental groups were divided into an untreated control group (normal group, Cont), a muscle atrophy induced group (induction group, IM), a positive control group (HMB administered group, HMB 370) induced with muscle atrophy and administered with beta-hydroxy beta-methylbutyrate (HMB) (370 mg/kg), a group (Aster spathulifolius low-dose administered group, AS 100) induced with muscle atrophy and administered with a low dose (100 mg/kg) of Aster spathulifolius extract, and a group (Aster spathulifolius high-dose administered group, AS 200) induced with muscle atrophy and administered with a high dose (200 mg/kg) of Aster spathulifolius extract. Immobilization of the legs was performed by applying a fixing tool manufactured by using a 1.5 ml microfuge tube, clips, and a Velcro tape as shown in References (Disease models & mechanisms, 8(9), 1059-1069, 2015) to one hind leg of the mouse. All samples were dissolved in 0.5% carboxymethylcellulose (CMC) and orally administered once a day for 14 days from a day of application of leg fixation. After 2 weeks of leg fixation and oral administration of the sample, the gastrocnemius and the quadriceps of one hind leg were extracted, and the weights thereof were measured, normalized in proportion to the body weight, and then compared and shown in FIG. 1. As a result, compared to the normal group (Cont), the induction group (IM) induced muscle atrophy, resulting in a weight loss of about 40% in the gastrocnemius and about 33% in the quadriceps in proportion to the body weight. In the HMB-administered group (HMB 370), as the positive control group, the gastrocnemius decreased by about 24% and the quadriceps decreased by about 17%, showing about 16% and 16% of a muscle atrophy protective ability, respectively. On the other hand, in the low-dose group of Aster spathulifolius (AS 100), the gastrocnemius decreased by about 27% and the quadriceps decreased by about 22%. In the high-dose group of Aster spathulifolius (AS 200), the gastrocnemius decreased by about 25% and the quadriceps decreased by about 18%."}, "[2]": {"system": "muscle atrophy mouse model", "experiment": "Cross-sectional area of muscle fibers (H&E staining, image J) in muscle atrophy mouse model", "settings": "370 mg/kg oral, 14 days", "protocol": "as §1\nHistological analysis was conducted to confirm whether an Aster spathulifolius extract improved the reduction in cross-sectional area of muscle fibers in a muscle atrophy mouse model. The gastrocnemius and quadriceps tissues extracted in Example 2 above were fixed with 4% paraformaldehyde and then subjected to hematoxylin and eosin staining (H&E staining), and thereafter, the cross-sectional area of the dyed muscle fibers was quantified through image J software, and the results were shown in FIGS. 2 and 3."}, "[3]": {"system": "p-mTOR", "experiment": "Western blot protein expression in gastrocnemius of muscle atrophy mouse model", "settings": "370 mg/kg oral, 14 days", "protocol": "An animal experiment was conducted to confirm whether an Aster spathulifolius extract improved muscle atrophy in a muscle atrophy mouse model. Five-week-old male C57BL/6 mice were adapted to an animal laboratory environment for one week, and then divided into five groups according to an experimental condition, and immobilization of the legs to induce muscle atrophy and oral administration of samples were performed for two weeks. Specifically, experimental groups were divided into an untreated control group (normal group, Cont), a muscle atrophy induced group (induction group, IM), a positive control group (HMB administered group, HMB 370) induced with muscle atrophy and administered with beta-hydroxy beta-methylbutyrate (HMB) (370 mg/kg), a group (Aster spathulifolius low-dose administered group, AS 100) induced with muscle atrophy and administered with a low dose (100 mg/kg) of Aster spathulifolius extract, and a group (Aster spathulifolius high-dose administered group, AS 200) induced with muscle atrophy and administered with a high dose (200 mg/kg) of Aster spathulifolius extract. […] After 2 weeks of leg fixation and oral administration of the sample, the gastrocnemius and the quadriceps of one hind leg were extracted, and the weights thereof were measured, normalized in proportion to the body weight, and then compared and shown in FIG. 1. […]"}, "[4]": {"system": "atrogin-1", "experiment": "qRT-PCR mRNA expression in gastrocnemius of muscle atrophy mouse model", "settings": "370 mg/kg oral, 14 days, induction group about three times", "protocol": "(§2) An animal experiment was conducted to confirm whether an Aster spathulifolius extract improved muscle atrophy in a muscle atrophy mouse model. Five-week-old male C57BL/6 mice were adapted to an animal laboratory environment for one week, and then divided into five groups according to an experimental condition, and immobilization of the legs to induce muscle atrophy and oral administration of samples were performed for two weeks. […] After 2 weeks of leg fixation and oral administration of the sample, the gastrocnemius and the quadriceps of one hind leg were extracted, and the weights thereof were measured, normalized in proportion to the body weight, and then compared and shown in FIG. 1. […]\n(§3) To confirm whether the Aster spathulifolius extract improved the mRNA expression levels of muscle atrophy-related factors, muscle ring finger-1 (MuRF-1) and Atrogin-1, in a muscle atrophy mouse model, quantitative real-time PCR (qRT-PCR) was performed. […]"}, "[5]": {"system": "murf-1", "experiment": "qRT-PCR mRNA expression in gastrocnemius of muscle atrophy mouse model", "settings": "370 mg/kg oral, 14 days, induction group about 3 times", "protocol": "as §2, §3"}}}
{"smiles": "CC(C)(O)CC(=O)O", "note": "[HMB, beta-hydroxy beta-methylbutyrate]", "values": [{"measurement": "quadriceps weight decrease in proportion to body weight vs normal group", "setting": "[1]; 370 mg/kg oral once a day, 14 days leg fixation, induction group about 33%", "result": "about 17%"}, {"measurement": "gastrocnemius weight decrease in proportion to body weight vs normal group", "setting": "[1]; 370 mg/kg oral once a day, 14 days leg fixation, induction group about 40%", "result": "about 24%"}, {"measurement": "muscle atrophy protective ability (muscle weight), gastrocnemius", "setting": "[1]; 370 mg/kg oral, 14 days", "result": "about 16%"}, {"measurement": "muscle atrophy protective ability (muscle weight), quadriceps", "setting": "[1]; 370 mg/kg oral, 14 days", "result": "about 16%"}, {"measurement": "protective ability against the cross-sectional area of muscle fibers, gastrocnemius", "setting": "[2]", "result": 17, "unit": "%"}, {"measurement": "protective ability against the cross-sectional area of muscle fibers, quadriceps", "setting": "[2]", "result": 19, "unit": "%"}, {"measurement": "reduction in muscle fiber size (H&E staining)", "setting": "[2]; both muscle tissues", "result": "the reduction in muscle fiber size was alleviated"}, {"measurement": "decrease of cross-sectional area of muscle fiber vs normal group, quadriceps", "setting": "[2]; induction group about 47%", "result": "about 28%"}, {"measurement": "decrease of cross-sectional area of muscle fiber vs normal group, gastrocnemius", "setting": "[2]; induction group about 50%", "result": "about 33%"}, {"measurement": "p-mTOR protein expression", "setting": "[3]", "result": "large increase"}, {"measurement": "atrogin-1 gene expression relative to normal group", "setting": "[4]", "result": "about 1.3 times"}, {"measurement": "murf-1 gene expression relative to normal group", "setting": "[5]", "result": "about 1.7 times"}]}
